Assay results from EP1140809B1, “NEW BIPHENYL AND BIPHENYL-ANALOGOUS COMPOUNDS AS INTEGRIN ANTAGONISTS” (Bayer HealthCare AG, priority 1998, dated 2000).

Columns and labels:
[1] = target: T1, αvβ3 receptor (Homo sapiens, UniProt P05106+P06756); assay: Binding to the αvβ3 receptor (echistatin displacement, WGA SPA beads); settings: αvβ3 purified from human A375 cells, labelled echistatin, read-out: avb3 IC50
T1 construct: αvβ3 from human A375 cells were purified according to a procedure described by Wong et al; endogenous in cells; host or cells: human A375 cells; receptor purified from the cells, detergent-solubilised
T1 sequence (P06756 31-889 limits assumed): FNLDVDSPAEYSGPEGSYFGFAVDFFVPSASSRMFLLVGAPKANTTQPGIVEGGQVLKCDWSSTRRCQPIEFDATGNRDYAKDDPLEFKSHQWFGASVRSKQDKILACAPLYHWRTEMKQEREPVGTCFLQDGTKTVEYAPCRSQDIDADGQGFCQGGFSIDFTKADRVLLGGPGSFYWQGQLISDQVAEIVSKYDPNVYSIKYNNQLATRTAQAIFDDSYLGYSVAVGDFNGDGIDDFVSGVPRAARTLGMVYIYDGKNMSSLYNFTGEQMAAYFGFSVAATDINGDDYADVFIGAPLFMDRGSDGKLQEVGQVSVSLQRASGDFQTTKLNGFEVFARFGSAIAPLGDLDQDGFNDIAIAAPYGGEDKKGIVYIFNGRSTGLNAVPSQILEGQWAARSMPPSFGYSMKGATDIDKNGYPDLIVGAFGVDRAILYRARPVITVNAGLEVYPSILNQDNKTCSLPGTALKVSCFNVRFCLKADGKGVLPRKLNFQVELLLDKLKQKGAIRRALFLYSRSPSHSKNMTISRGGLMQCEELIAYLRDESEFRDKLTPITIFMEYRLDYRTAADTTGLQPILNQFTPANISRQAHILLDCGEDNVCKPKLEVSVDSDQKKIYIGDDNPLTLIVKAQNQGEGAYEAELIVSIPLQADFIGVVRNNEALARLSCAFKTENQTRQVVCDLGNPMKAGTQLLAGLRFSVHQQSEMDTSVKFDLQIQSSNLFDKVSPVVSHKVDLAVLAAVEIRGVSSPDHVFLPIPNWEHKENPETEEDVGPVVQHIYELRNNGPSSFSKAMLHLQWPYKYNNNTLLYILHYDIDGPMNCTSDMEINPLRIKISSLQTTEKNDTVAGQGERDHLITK
T1 sequence (P06756 891-1048 partner limits assumed): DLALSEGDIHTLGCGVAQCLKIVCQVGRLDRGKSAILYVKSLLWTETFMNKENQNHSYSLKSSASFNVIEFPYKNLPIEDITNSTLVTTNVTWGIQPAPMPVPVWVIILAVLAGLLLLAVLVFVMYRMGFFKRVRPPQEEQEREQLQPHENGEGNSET
T1 sequence (P05106 27-788): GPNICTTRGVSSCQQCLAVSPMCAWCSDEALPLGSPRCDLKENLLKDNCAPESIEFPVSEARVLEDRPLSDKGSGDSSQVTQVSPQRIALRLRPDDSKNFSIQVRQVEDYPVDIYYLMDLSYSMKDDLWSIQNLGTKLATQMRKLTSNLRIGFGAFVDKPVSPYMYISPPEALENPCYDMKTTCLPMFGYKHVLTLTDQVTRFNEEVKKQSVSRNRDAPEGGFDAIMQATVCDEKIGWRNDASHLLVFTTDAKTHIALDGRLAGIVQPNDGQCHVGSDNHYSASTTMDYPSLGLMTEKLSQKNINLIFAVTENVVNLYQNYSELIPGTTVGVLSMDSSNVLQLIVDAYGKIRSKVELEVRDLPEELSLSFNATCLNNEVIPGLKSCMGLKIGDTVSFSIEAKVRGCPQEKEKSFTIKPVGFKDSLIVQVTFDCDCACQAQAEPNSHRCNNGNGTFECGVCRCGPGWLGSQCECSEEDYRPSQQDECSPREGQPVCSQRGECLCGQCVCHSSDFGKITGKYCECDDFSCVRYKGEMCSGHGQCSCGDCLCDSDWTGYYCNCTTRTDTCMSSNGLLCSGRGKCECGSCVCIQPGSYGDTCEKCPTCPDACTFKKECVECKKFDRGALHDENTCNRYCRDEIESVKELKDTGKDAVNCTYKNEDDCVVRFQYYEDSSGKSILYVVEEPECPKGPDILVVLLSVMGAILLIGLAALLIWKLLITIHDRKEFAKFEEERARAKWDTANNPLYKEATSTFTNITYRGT
Description: a) Binding to the αvβ3 receptor
10 µl αvβ3 (5 ng) in TBS pH 7.6, 2 mM CaCl2, 1mM MgCl2, 1% n/octylglucopyranoside; 10 µl of the substance to be tested in TBS pH 7.6, 0.1 % dimethylsulfoxide (DMSO), and 45 µl TBS pH 7.6, 2 mM CaCl2, 1 mM MgCl2, 1 mM MnCl2 were each incubated for 1 h at room temperature.

[2] = system: Smooth muscle cells; assay: Smooth muscle cell (SMC) migration test (horizontal, vitronectin-coated plates); format: cell-based, humans or rats; settings: migration on vitronectin, 24 hours at 37°C; human or rat cells not specified
Description: b) Smooth muscle cell (SMC) migration test
Smooth muscle cells from humans or rats were used. The migration of the cells was determined in a horizontal measuring arrangement (Falcon).
The horizontal migration was determined in 6-well plates coated with vitronectin (1 µg/cm^2). The cells were suspended in a medium ([…]-rat smooth muscle cells or MCDB 131 with 0.2% BSA-human smooth muscle cells), inoculated and allowed to grow to confluence. Half of the smooth muscle cell lawn was then scraped off, and the cells were treated with different concentrations of the test compounds. The mixtures were incubated for 24 hours at 37°C in the presence of 5% CO2. After the incubation, the smooth muscle cell migration was determined by measurement of the migration distance and the cell density of the migrated cells.

[3] = target: αvβ5 receptor (Homo sapiens, UniProt P06756+P18084); settings: disclosed in WO 98/00395; cited from earlier work
Sequence of αvβ5 receptor (P06756 31-889 limits assumed): as the sequence (P06756 31-889 limits assumed) above
Sequence of αvβ5 receptor (P06756 891-1048 partner limits assumed): as the sequence (P06756 891-1048 partner limits assumed) above
Sequence of αvβ5 receptor (P18084 24-799): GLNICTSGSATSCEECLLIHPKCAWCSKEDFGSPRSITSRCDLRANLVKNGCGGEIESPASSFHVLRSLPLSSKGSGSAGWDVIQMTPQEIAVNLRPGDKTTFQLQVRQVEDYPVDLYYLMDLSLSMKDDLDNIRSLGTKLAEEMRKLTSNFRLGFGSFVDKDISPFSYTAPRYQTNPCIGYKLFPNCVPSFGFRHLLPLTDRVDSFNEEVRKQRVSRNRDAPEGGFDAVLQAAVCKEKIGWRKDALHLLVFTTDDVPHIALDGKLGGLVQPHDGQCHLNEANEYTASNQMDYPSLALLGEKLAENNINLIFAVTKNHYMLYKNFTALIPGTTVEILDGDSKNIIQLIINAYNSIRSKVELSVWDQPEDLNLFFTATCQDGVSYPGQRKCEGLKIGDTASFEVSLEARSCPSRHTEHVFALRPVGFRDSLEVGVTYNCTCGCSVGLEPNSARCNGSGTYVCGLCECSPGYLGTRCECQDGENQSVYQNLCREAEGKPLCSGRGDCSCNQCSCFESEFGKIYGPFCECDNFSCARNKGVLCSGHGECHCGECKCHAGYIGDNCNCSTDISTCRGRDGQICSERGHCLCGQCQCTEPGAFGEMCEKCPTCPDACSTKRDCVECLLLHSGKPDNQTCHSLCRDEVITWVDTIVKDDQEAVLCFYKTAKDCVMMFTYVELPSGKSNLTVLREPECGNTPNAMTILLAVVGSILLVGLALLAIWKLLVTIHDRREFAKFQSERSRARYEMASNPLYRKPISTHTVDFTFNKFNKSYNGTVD

| Structure (SMILES) | IC50 [1] | IC50 [2] | IC50 [3] |
| --- | --- | --- | --- |
| Cc1cc(C)c(S(=O)(=O)NC(Cc2ccc(-c3cccc(NC(=O)NCc4cccnc4)c3)cc2)C(=O)O)c(C)c1 (racemic) [Example 1.5, (2R,S)-3-[3'-(3-(Pyridin-3-yl-methylureido)-biphenyl-4-yl]-2-[2,4,6-trimethylbenzenesulfonylamino]-propanoic acid] | 5 nM | 480 nM | – |
| CC1(C)C2CCC1(CS(=O)(=O)NC(Cc1ccc(OCCCC(=O)NC(=N)N)cc1)C(=O)O)C(=O)C2 (centres unmarked) [(I)] | – | – | 0.16 nM |
| Cc1cc(C)c(S(=O)(=O)N[C@@H](Cc2ccc(-c3cccc(CNc4ccccn4)c3)cc2)C(=O)O)c(C)c1 [Example 18.1.3, (2S)-2-Mesitylsulfonylamino-3-{3'-[(2-pyridinylamino)-methyl][1,1'-biphenyl]-4-yl}-propanoic acid] | 9 nM | 35 to 80 nM | – |
| Cc1cc(C)c(S(=O)(=O)N[C@@H](Cc2ccc(-c3cccc(NC(=O)NC4CC4)c3)cc2)C(=O)O)c(C)c1 [Example 1.13, (2S)-3-[3'-(3-Cyclopropyl-ureido)-biphenyl-4-yl]-2-(2,4,6-trimethyl-benzenesulfonylamino)-propanoic acid] | 1.2 nM | 390 nM | – |

Continued, in another order:

| IC50 [1] | IC50 [2] | Structure (SMILES) | IC50 [3] |
| --- | --- | --- | --- |
| 1.2 nM | – | Cc1cc(C)c(S(=O)(=O)NC(Cc2ccc(-c3cccc(NC4=NCCN4)c3)cc2)C(=O)O)c(C)c1 (racemic) [Example 7.1, (2R,S)-3-[3'-(4,5-Dihydro-1H-Imidazol-2-ylamino)-biphenyl-4-yl]-2-(2,4,6-trimethyl-benzenesulfonylamino)-propanoic acid] | – |
| – | 300 nM | O=C(O)CC(NS(=O)(=O)c1cccc(-c2cccc(CNCc3nc4ccccc4[nH]3)c2)c1)c1ccccc1 (racemic) [Example 8.1, (3R,S)-3-(3'-{[(1H-Benzoimidazol-2-ylmethyl)-amino]-methyl}-biphenyl-3-sulfonylamino)-3-phenyl-propanoic acid] | – |
| 1 nM | 80 nM | Cc1cc(C)c(S(=O)(=O)N[C@@H](Cc2ccc(-c3cccc(NC(=O)c4ncc[nH]4)c3)cc2)C(=O)O)c(C)c1 [Example 19.1.2, (2S)-3-{3'-[(1H-imidazol-2-ylcarbonyl)amino][1,1'-biphenyl]-4-yl}-2-[(mesitylsulfonyl)amino]-propanoic acid] | – |
| – | 3 to 40 nM | CC1(C)C2CCC1(CS(=O)(=O)NC(Cc1ccc(-c3cccc(NC(=O)Nc4cccnc4)c3)cc1)C(=O)O)C(=O)C2 [Example 1.73, (2S)-3-[3'-(3-Pyridin-3-yl-ureido)-biphenyl-4-yl]-2-[(S)-campher-10-yl-sulfonylamino]-propanoic acid] | – |
| 33 nM | 300 nM | O=C(O)CNS(=O)(=O)c1cccc(-c2cccc(NC(=O)NCc3ccccn3)c2)c1 [Example 4.1, [3'-(3-Pyridin-2-ylmethyl-ureido)-biphenyl-3-sulfonylamino]-acetic acid] | – |
